In patent US20260297042A1, “BIARYLAMIDE DERIVATIVES AND THEIR USE AS PKMYT1 INHIBITORS” (CANCER RESEARCH TECHNOLOGY LIMITED, priority 2023, published 2026):

What was measured:
Human PKMYT1 = biological target: T1, Human PKMYT1 (Homo sapiens, UniProt Q99640); test: PKMYT1 biochemical ADP-Glo enzymatic assay; conditions: ADP-Glo
T1 construct: Human PKMYT1 75-362 was cloned as a TEV cleavable 6xHis fusion; 6xHis (TEV cleavable) (cleaved yes); made in house; host or cells: bacterial cells
T1 sequence (Q99640 75-362): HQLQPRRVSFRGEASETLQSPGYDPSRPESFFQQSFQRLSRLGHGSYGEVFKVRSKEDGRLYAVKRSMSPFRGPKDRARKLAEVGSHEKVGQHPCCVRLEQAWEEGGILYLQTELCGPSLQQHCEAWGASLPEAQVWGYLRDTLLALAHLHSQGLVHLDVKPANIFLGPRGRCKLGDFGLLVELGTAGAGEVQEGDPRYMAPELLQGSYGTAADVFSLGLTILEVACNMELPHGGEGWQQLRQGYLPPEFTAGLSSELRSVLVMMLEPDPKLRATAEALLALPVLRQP
How it was run: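 PKMYT1 75-362 (His-cleaved, bacterial) 15 nM; ATP 500 µM; HEPES pH 7.5, MgCl2, EGTA, Brij-35, 1% DMSO; 60 min, 26 °C; ADP-Glo Max luminescence; 10-pt 3-fold titration → IC50; replicates within 3-fold, r2 >0.9.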

OVCAR 3 cells = test: Cancer cell line proliferation assay, ATP-based cell viability (Cell Titre Glow), OVCAR 3 (CCNE1-amplified); conditions: KYSE30 (normal CCNE1) GI50 vs. OVCAR 3 (CCNE1-amplified) GI50
How it was run: (§1)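 GI50 values, the concentrations halving cell growth, were derived from ATP-based luminescence (Cell Titre Glo) after PKMYT1 inhibitor exposure. Cells tested were OVCAR 3, an ovarian line with amplified CCNE1, and KYSE-30, which has normal CCNE1.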

KYSE-30 cells = test: Cancer cell line proliferation assay, ATP-based cell viability (Cell Titre Glow), KYSE-30 (normal CCNE1); conditions: Homo sapiens, KYSE-30 cells (normal CCNE1), concentration that achieves 50% cell growth proliferation inhibition, read-out: KYSE30 Gl50
How it was run: as §1

[1] = biological target: T2, Cellular PKMYT1 Biomarker CDK1 pT14 (Homo sapiens, UniProt Q99640); test: Inhibition of cellular PKMYT1 biomarker CDK1 pT14 in OVCAR 3 cells (immunoblot); format: cell-based; conditions: 20 hours incubation
T2 construct: read-out CDK1 phospho-T14 immunoblot
T2 sequence (Q99640 1-499): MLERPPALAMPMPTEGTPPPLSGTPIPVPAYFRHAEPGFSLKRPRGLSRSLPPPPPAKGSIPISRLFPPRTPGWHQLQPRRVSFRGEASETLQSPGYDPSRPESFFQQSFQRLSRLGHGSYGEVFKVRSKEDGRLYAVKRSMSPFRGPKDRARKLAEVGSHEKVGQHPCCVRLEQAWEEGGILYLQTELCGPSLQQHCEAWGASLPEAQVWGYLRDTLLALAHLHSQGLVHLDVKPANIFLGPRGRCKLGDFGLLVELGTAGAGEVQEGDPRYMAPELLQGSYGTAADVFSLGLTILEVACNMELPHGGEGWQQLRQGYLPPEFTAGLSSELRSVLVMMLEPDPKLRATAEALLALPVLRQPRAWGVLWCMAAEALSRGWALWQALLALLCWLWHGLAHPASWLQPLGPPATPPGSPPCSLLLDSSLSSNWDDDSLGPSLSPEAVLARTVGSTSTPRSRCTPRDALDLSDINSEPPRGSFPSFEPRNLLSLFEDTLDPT
Experimental: To determine compound PKMYT1 IC50 in a cellular assay, OVCAR 3 cells were incubated at 37° C. in 5% CO2 atmosphere. The cells were maintained in RPMI medium supplemented with 20% foetal bovine serum, 1X non essential amino acids, 1 mM sodium pyruvate, Glutamax and insulin. Cells were seeded into 12-well plates at low density (50,000-200,000 cells per well), grown to confluence (~350-400,000 cells per well) and then treated with a range of concentrations of PKMYT1 inhibitors. The cells were incubated 20 hours and then harvested into 1X Laemmli Sample Buffer (BIORAD) without 2-mercaptoethanol, heated to 95° C. for 5 min, centrifuged and sonicated using a microprobe for 15 sec, 21W to shear the DNA.
The samples were analysed by immunoblot on a Jess Automated Western Blot System (BioTechne). The samples were separated using the 12-230 kDa Separation Module (BioTechne,) and blotted using an anti-CDK1 phospho T14 antibody (Abcam, #ab58509) and an anti-vinculin antibody (Abcam, #126002). Specific binding was detected by fluorescence using the Anti-Rabbit Detection Module (BioTechne, #DM-001), quantified using Compass for Simple Western software, and IC50 values were calculated by regression analysis in GraphPad Prism.

WEE1 = biological target: T3, WEE1 (Homo sapiens, UniProt P30291); test: Selectivity versus WEE1 assay (ADP-Glo enzymatic assay); format: biochemical; conditions: for IC50: ADP-Glo; for PKMYT1 vs. WEE1 selectivity: fold difference in selectivity for PKMYT1 over WEE1
T3 construct: purchased Thermo Fisher PR7373A
How it was run: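 15 nM WEE1, 30 µM ATP, 50 mM HEPES pH 7.5, 10 mM MgCl2, 1 mM EGTA, 0.01% Brij-35, 1% DMSO; 60 min, 26° C; ADP-Glo luminescence; IC50 from curve fit, replicates within 3-fold, r2 >0.9.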

[2] = PKMYT1 kinase domain 15 nM, banded values
[3] = 15 nM PKMYT1 kinase domain, 500 µM ATP, 60 minutes at 26° C., banded
[4] = 15 nM WEE1, 60 minutes at 26° C., banded
[5] = banded, ">N" = at least in this band but could be higher

T3 sequence (P30291 whole entry): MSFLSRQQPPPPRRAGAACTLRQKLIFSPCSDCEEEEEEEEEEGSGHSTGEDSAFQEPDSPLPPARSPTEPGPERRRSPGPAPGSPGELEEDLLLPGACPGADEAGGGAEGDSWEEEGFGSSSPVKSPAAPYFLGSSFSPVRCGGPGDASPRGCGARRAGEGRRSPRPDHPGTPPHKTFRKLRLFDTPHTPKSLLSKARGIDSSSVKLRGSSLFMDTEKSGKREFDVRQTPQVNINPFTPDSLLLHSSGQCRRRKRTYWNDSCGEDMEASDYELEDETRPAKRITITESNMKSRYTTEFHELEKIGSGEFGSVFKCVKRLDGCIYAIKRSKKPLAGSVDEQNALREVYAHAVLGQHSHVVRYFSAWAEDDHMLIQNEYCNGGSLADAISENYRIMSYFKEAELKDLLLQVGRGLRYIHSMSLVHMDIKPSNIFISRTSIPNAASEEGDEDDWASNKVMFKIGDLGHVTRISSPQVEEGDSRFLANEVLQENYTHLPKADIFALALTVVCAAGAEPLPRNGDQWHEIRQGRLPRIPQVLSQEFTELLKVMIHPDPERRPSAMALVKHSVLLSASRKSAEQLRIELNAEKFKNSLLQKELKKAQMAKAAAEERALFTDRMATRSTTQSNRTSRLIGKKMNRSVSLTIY

SMILES	IC50 (Human PKMYT1; [2])	Selectivity ratio KYSE30 Gl50 vs. OVCAR3 Gl50 (OVCAR 3 cells)	GI50 (KYSE-30 cells)	IC50 [1]	IC50 (WEE1; WEE1 15 nM, banded values)	PKMYT1 vs. WEE1 selectivity (WEE1; banded)	IC50 (Human PKMYT1; [3])	IC50 (WEE1; [4])	PKMYT1 vs. WEE1 selectivity (WEE1; [5])
Cc1cn(CC(=O)N2CCCC2c2ccccc2)nc1Nc1ncc(C(=O)Nc2c(C)ccc(O)c2C)s1 (stereo not drawn) [BAA-600, N-(3-hydroxy-2,6-dimethylphenyl)-2-((4-methyl-1-(2-oxo-2-(2-phenylpyrrolidin-1-yl)ethyl)-1H-pyrazol-3-yl)amino)thiazole-5-carboxamide]	< 50 nM	Y (>20 fold)	0.5 to 5 µM	< 100 nM	1 to 11 µM	X (100-<1000 fold)	–	–	–
Cc1ccc(O)c(C)c1NC(=O)c1cnc(Nc2nn(C)c3ccc(F)cc23)s1 [BAA-453, 2-((5-fluoro-1-methyl-1H-indazol-3-yl)amino)-N-(3-hydroxy-2,6-dimethylphenyl)thiazole-5-carboxamide]	50 to 1000 nM	Y (>20 fold)	> 5 µM	< 100 nM	> 11 µM	X (100-<1000 fold)	–	–	–
Cc1cn(S(=O)(=O)C(C)C)nc1Nc1ncc(C(=O)Nc2c(C)ccc(O)c2C)s1 [BAA-268, N-(3-hydroxy-2,6-dimethylphenyl)-2-((1-(isopropylsulfonyl)-4-methyl-1H-pyrazol-3-yl)amino) thiazole-5-carboxamide]	–	Y (>20 fold)	> 5 µM	< 100 nM	–	–	< 50 nM	> 11 µM	Y (1000-5000 fold)
Cc1ccc(O)c(C)c1NC(=O)c1cnc(Nc2cccc(-c3ccc(C(F)(F)F)cc3)n2)s1 [BAA-316, N-(3-hydroxy-2,6-dimethylphenyl)-2-((6-(4-(trifluoromethyl)phenyl)pyridin-2-yl)amino)thiazole-5-carboxamide]	–	Y (>20 fold)	0.5 to 5 µM	100 to 1000 nM	–	–	50 to 1000 nM	> 11 µM	Y (1000-5000 fold)
Cc1cn(-c2ccn(C)n2)nc1Nc1ncc(C(=O)Nc2c(C)ccc(O)c2C)s1 [BAA-398, 2-((1′,4-dimethyl-1′H-[1,3′-bipyrazol]-3-yl)amino)-N-(3-hydroxy-2,6-dimethylphenyl)thiazole-5-carboxamide]	< 50 nM	Y (>20 fold)	0.5 to 5 µM	< 100 nM	1 to 11 µM	X (100-<1000 fold)	–	–	–
Cc1ccc(O)c(C)c1NC(=O)c1cnc(Nc2c3cccnc3nn2C)s1 [BAA-243, N-(3-hydroxy-2,6-dimethylphenyl)-2-((2-methyl-2H-pyrazolo[3,4-b]pyridin-3-yl)amino)thiazole-5-carboxamide]	–	X (3-20 fold)	> 5 µM	< 100 nM	–	–	< 50 nM	1 to 11 µM	X (100-<1000 fold)
Cc1ccc(O)c(C)c1NC(=O)c1cnc(Nc2cc(N3CCOCC3)ccn2)s1 [BAA-402, N-(3-hydroxy-2,6-dimethylphenyl)-2-((4-morpholinopyridin-2-yl)amino)thiazole-5-carboxamide]	< 50 nM	Y (>20 fold)	0.5 to 5 µM	< 100 nM	0.05 to 1 µM	W (10-<100 fold)	–	–	–
Cc1cn(S(=O)(=O)c2ccccc2)nc1Nc1ncc(C(=O)Nc2c(C)ccc(O)c2C)s1 [BAA-379, N-(3-Hydroxy-2,6-dimethylphenyl)-2-((4-methyl-1-(phenylsulfonyl)-1H-pyrazol-3-yl)amino)thiazole-5-carboxamide]	–	X (3-20 fold)	> 5 µM	< 100 nM	–	–	< 50 nM	> 11 µM	X (100-<1000 fold)
Cc1cn(CC(=O)N2CCCC2(C)C)nc1Nc1ncc(C(=O)Nc2c(C)ccc(O)c2C)s1 [BAA-605, 2-((1-(2-(2,2-dimethylpyrrolidin-1-yl)-2-oxoethyl)-4-methyl-1H-pyrazol-3-yl)amino)-N-(3-hydroxy-2,6-dimethylphenyl)thiazole-5-carboxamide]	< 50 nM	Y (>20 fold)	> 5 µM	< 100 nM	1 to 11 µM	X (100-<1000 fold)	–	–	–
Cc1ccc(O)c(C)c1NC(=O)c1cnc(Nc2nn(CCF)cc2Br)s1 [BAA-585, 2-((4-bromo-1-(2-fluoroethyl)-1H-pyrazol-3-yl)amino)-N-(3-hydroxy-2,6-dimethylphenyl)thiazole-5-carboxamide]	< 50 nM	Y (>20 fold)	0.5 to 5 µM	< 100 nM	1 to 11 µM	X (100-<1000 fold)	–	–	–
COc1ccnc(Nc2ncc(C(=O)Nc3c(C)ccc(O)c3C)s2)c1 [BAA-418, N-(3-hydroxy-2,6-dimethylphenyl)-2-((4-methoxypyridin-2-yl)amino)thiazole-5-carboxamide]	< 50 nM	Y (>20 fold)	0.5 to 5 µM	< 100 nM	1 to 11 µM	X (100-<1000 fold)	–	–	–
CCn1nc(Nc2ncc(C(=O)Nc3c(C)ccc(O)c3C)s2)c2ccccc21 [BAA-458, 2-((1-ethyl-1H-indazol-3-yl)amino)-N-(3-hydroxy-2,6-dimethylphenyl)thiazole-5-carboxamide]	< 50 nM	Y (>20 fold)	0.5 to 5 µM	< 100 nM	1 to 11 µM	X (100-<1000 fold)	–	–	–
Cc1ccc(O)c(C)c1NC(=O)c1cnc(Nc2nc(NC(=O)C(C)(C)C)ccc2Cl)s1.Cl [BAA-333, 2-((3-chloro-6-pivalamidopyridin-2-yl)amino)-N-(3-hydroxy-2,6-dimethylphenyl)thiazole-5-carboxamide hydrochloride]	–	Y (>20 fold)	> 5 µM	< 100 nM	–	–	50 to 1000 nM	> 11 µM	Y (1000-5000 fold)
Cc1cn(C2CCC2)nc1Nc1ncc(C(=O)Nc2c(C)ccc(O)c2C)s1 [BAA-270, 2-((1-cyclobutyl-4-methyl-1H-pyrazol-3-yl)amino)-N-(3-hydroxy-2,6-dimethylphenyl)thiazole-5-carboxamide]	–	Y (>20 fold)	< 0.5 µM	< 100 nM	–	–	< 50 nM	1 to 11 µM	X (100-<1000 fold)
